According to publication PMC11866408, “LOPAC library screening identifies suramin as a TRIM21 binder with a unique binding mode revealed by crystal structure” (Acta Crystallographica Section F: Structural Biology …, 2025):

Key:
[1] = target: T1, TRIM21 PRYSPRY domain (human) (Homo sapiens, UniProt P19474); experiment: ITC; DSF shift […] K; assay type: binding
T1 construct: PRYSPRY domain, residues Val287–Leu465, His6-SUMO tag cleaved

[2] = target: T2, TRIM21 PRYSPRY domain (mouse) (Mus musculus, UniProt Q62191); experiment: co-crystal structure at […] Å; ITC; assay type: binding
T2 construct: PRYSPRY domain, residues Val291–Met470, N-terminal His6-tag
T2 sequence (Q62191 291-470): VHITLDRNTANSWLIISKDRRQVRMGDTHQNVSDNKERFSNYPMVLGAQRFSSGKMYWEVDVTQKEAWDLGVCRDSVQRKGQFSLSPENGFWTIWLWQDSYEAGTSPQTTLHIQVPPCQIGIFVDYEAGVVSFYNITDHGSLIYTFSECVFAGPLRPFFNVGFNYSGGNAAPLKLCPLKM

T1 sequence (P19474 287-465): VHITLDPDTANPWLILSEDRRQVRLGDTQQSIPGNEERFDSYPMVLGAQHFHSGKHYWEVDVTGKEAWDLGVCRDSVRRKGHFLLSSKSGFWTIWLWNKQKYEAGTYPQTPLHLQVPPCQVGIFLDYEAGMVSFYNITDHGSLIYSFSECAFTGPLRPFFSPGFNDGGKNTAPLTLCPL

Kd [1]: ~8 µM
Kd [2]: ~9 µM
SMILES: Cc1ccc(C(=O)Nc2ccc(S(=O)(=O)O)c3cc(S(=O)(=O)O)cc(S(=O)(=O)O)c23)cc1NC(=O)c1cccc(NC(=O)Nc2cccc(C(=O)Nc3cc(C(=O)Nc4ccc(S(=O)(=O)O)c5cc(S(=O)(=O)O)cc(S(=O)(=O)O)c45)ccc3C)c2)c1 [suramin]
